Experimental data taken from patent EP2130831A1, “CDC25 inhibitors” (InterMed Discovery GmbH, priority 2008, dated 2009).
Like-named read-outs stand apart in the source and are kept apart here.

Key:
[1] = system: leukemia cell line (P388); assay: In vitro cell assays against a leukemia cell line; type: cell-based; settings: result in words
[2] = biological target: T1, CDC25C (Homo sapiens, UniProt P30307); assay: CDC25C Enzyme Assay (hydrolysis of fluorogenic substrate OMFP); type: biochemical
T1 sequence (P30307 1-473): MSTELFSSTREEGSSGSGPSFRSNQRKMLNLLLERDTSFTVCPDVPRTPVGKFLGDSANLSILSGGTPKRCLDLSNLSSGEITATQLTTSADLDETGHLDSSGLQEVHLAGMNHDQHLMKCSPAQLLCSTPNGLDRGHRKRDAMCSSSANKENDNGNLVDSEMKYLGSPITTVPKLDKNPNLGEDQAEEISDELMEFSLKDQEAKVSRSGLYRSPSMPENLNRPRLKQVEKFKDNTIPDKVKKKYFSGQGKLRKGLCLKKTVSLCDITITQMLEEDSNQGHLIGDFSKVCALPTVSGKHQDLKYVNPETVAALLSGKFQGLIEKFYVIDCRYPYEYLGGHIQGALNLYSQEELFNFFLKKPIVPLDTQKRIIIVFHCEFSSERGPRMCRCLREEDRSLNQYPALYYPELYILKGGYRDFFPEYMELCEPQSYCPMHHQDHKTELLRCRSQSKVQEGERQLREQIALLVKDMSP
Procedure: The assay principle was hydrolysis of an artificial fluorogenic substrate of CDC25C, 3-0-methyl-fluorescein monophosphate (OMFP). […] The assay was performed in 96 well microtiter plates (Greiner 96 well black FIA plates) at ambient temperature.
The additions to the wells were as follows: 1 Addition of 4 µl of a DMSO solution of the test compound; controls received 4 µl of DMSO instead 2 Addition of 76 µl assay buffer (assay buffer: 100 mM Tris pH 8.2, 40 mM NaCl. 5 mM DTT, 20% glycerol) 3 Addition of 10 µl CDC25 C (CDC25 C in assay buffer; protein final concentration 1.1 µg/mL) 4 Start of reaction by addition of 10 µl OMFP (substrate in assay buffer; final concentration of OMFP in assay: 90 µM )
Ortho-vanadate was used as a reference inhibitor. Background controls contained buffer, substrate and DMSO, but no enzyme. The microtiter plates were analyzed using a Tecan Ultra fluorescence reader.

[3] = system: CDC25; settings: literature reports; cited from earlier work
[4] = system: HCT116; assay: Cell proliferation Assay (Alamar Blue), HCT116; type: cell-based; settings: Homo sapiens, HCT-116, 72 hrs
Procedure: (§1) Used cell lines: HCT116; DU145; A549, H460 In a 96-well plate, 3000 cells/well were plated in 100 µl DMEM containing 10% FBS, 10 mM HEPES and 1% Penicllin/Streptomycin. To each well 50 µl of additional growth media containing the compound with 0.1% DMSO was added. Cells were grown for 72 hrs. at 37°C. 20 µl of Alamar Blue reagent was added and incubated for 3-5 hours until color develops. Plates were read in a SpectraMax Gemini (Molecular Devices, CA) with 544 nm excitation and 590 nm emission wavelength.

[5] = system: H460; assay: Cell proliferation Assay (Alamar Blue), H460; type: cell-based; settings: Homo sapiens, NCI-H460, 72 hrs
Procedure: as §1

[6] = system: DU145; assay: Cell proliferation Assay (Alamar Blue), DU145; type: cell-based; settings: Homo sapiens, DU-145, 72 hrs
Procedure: as §1

[7] = system: A549; assay: Cell proliferation Assay (Alamar Blue), A549; type: cell-based; settings: Homo sapiens, 72 hrs
Procedure: as §1, with “wavelength. Table #5: Results assay #2” for “wavelength.”

[8] = biological target: T2, CDC25A (Homo sapiens, UniProt P30304); assay: CDC25A inhibition assay (sub-type selectivity); type: biochemical; settings: after 20 minutes of pre-incubation; read-out: IC50 against CDC25A
T2 sequence (P30304 1-524): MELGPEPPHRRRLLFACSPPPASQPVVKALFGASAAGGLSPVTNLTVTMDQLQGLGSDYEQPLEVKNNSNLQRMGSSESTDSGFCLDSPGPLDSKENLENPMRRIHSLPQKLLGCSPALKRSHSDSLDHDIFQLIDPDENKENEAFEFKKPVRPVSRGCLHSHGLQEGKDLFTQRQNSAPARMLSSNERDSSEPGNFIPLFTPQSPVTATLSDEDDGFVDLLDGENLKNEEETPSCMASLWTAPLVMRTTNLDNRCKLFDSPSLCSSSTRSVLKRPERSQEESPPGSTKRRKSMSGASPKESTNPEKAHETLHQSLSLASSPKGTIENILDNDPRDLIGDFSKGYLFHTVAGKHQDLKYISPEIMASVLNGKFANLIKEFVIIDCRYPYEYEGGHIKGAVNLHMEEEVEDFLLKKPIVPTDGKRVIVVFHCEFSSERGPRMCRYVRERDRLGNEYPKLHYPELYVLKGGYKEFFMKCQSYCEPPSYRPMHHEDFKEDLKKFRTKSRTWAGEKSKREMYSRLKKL
From the text: (§2) The compound of example 5 was thoroughly characterized towards its selectivity for CDC25 sub-types A, B, and C.

[9] = biological target: T3, PTP1 B (Homo sapiens, UniProt P18031); assay: Phosphatase counter-screen against PTP1 B; type: biochemical
T3 sequence (P18031 1-435): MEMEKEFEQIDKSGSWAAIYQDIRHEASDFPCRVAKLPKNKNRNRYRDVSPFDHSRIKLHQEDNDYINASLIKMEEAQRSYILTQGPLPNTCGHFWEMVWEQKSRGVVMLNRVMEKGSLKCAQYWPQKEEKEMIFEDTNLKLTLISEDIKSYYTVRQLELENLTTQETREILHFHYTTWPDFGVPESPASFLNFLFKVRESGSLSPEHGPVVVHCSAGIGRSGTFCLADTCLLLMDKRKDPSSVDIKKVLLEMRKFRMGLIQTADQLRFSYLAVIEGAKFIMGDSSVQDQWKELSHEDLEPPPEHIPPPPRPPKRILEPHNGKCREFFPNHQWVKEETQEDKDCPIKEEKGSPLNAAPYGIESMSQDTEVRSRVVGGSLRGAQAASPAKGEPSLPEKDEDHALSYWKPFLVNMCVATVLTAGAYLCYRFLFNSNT

[10] = biological target: T4, CDC25B (Homo sapiens, UniProt P30305); assay: CDC25B inhibition assay (sub-type selectivity); type: biochemical; settings: after 20 minutes of pre-incubation; read-out: IC50 against CDC25B
T4 sequence (P30305 1-580): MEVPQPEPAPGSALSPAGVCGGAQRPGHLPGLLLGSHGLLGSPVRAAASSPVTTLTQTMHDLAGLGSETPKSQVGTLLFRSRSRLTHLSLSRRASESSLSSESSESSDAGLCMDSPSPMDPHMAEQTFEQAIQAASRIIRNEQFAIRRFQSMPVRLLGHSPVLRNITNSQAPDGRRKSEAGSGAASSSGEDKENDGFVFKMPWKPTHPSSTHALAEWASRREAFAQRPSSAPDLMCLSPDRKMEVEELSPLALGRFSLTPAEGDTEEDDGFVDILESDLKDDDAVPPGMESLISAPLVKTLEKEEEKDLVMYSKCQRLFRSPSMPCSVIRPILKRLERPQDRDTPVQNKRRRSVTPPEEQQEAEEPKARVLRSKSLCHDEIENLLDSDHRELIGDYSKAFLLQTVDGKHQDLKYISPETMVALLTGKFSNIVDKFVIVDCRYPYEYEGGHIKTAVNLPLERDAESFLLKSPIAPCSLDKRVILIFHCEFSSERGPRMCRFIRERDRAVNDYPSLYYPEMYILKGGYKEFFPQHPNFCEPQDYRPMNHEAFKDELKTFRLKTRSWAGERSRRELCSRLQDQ
From the text: as §2

[11] = biological target: LAR (PTPRF) (Homo sapiens, UniProt P10586); assay: Phosphatase counter-screen against LAR (PTPRF); type: biochemical
Sequence of LAR (PTPRF) (P10586 30-1907, species assumed): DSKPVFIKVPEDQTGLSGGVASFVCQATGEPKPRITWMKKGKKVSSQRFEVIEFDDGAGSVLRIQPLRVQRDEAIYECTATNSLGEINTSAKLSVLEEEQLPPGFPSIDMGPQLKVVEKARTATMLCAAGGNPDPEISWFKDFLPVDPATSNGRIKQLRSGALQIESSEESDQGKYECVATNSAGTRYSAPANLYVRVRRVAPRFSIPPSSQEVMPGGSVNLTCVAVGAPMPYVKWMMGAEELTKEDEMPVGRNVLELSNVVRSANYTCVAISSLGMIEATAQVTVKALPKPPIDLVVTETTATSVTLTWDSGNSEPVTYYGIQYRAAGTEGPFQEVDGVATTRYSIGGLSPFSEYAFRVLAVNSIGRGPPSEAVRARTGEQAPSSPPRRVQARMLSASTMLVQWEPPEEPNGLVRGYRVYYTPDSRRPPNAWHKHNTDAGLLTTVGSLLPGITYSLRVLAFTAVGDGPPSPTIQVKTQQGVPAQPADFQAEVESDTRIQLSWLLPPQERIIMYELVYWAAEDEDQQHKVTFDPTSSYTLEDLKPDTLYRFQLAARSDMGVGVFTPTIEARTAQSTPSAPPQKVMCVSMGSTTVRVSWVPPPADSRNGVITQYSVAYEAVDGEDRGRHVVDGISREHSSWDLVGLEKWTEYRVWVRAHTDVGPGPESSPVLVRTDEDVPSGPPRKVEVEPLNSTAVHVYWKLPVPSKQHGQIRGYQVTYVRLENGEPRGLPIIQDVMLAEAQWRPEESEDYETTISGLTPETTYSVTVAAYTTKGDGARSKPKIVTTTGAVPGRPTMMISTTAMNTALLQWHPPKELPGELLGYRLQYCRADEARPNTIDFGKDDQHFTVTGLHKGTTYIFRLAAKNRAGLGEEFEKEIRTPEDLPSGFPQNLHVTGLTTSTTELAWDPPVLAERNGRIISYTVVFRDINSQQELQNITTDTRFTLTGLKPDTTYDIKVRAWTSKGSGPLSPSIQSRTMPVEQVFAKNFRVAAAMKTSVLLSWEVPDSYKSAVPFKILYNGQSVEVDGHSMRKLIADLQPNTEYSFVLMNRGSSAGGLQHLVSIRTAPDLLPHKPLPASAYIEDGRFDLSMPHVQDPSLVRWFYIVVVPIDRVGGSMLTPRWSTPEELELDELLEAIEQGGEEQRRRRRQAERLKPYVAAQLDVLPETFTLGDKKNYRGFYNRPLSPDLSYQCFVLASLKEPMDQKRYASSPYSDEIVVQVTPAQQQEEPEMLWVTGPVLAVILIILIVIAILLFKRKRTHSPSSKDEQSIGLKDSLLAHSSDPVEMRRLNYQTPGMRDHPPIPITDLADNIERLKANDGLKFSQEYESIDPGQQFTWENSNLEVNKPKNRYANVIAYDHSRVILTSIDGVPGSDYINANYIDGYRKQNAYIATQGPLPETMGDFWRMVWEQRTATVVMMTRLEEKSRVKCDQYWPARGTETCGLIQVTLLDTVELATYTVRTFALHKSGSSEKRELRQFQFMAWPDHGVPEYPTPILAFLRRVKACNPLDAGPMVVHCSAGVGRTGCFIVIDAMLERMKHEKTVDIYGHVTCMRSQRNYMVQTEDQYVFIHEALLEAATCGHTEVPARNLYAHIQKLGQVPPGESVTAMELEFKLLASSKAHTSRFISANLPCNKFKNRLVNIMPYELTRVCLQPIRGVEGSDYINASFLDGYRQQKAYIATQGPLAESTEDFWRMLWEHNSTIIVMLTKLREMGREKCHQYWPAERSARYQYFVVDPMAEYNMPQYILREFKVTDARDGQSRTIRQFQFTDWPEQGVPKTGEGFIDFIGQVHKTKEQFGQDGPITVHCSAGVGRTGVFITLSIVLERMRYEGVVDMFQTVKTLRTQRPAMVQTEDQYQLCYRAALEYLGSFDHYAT

[12] = OMFP 90 µM, ambient temperature, assay run time 20 minutes, read-out: IC50

Q: For CCCc1c(C)c(=O)[nH]c2c(O)c3[nH]c(=O)c(C)c(CCC)c3cc12 [Example 10, 10-hydroxy-3,7-dimethyl-4,6-dipropylpyrido-[3,2-g]quinoline-2,8(1H,9H)-dione], which “potential as inhibitors of CDC25 compared with the comparative examples (1, 2, 3, 4, 6 and 9)” value [1] is on record?
A: much higher potential

Q: What about the IC50 [2, 12] of the same compound?
A: 850 nM

Q: For Cc1cc(=O)n(C)c2c(O)c3c(cc12)c(C)cc(=O)n3O [Example 8, 1,10-dihydroxy-4,6,9-trimethylpyrido[3,2-g]-quinoline-2,8(1H,9H)-dione], which “potential as inhibitors of CDC25 compared with the comparative examples (1, 2, 3, 4, 6 and 9)” value [1] is on record?
A: much higher potential

Q: And the IC50 [2, 12]?
A: 520 nM

Q: With coscinosulfate as the compound, how does the “inhibit CDC25” value [3] read?
A: micromolar levels

Q: For Cc1cc(=O)n2c3c(c4c(cc13)c(CO)cc(=O)n4C)OC2 [Example 1, nybomycin], which IC50 [4] is on record?
A: 730 nM

Q: What about the IC50 [5] of the same compound?
A: 230 nM

Q: What about the IC50 [6] of the same compound?
A: 720 nM

Q: And the IC50 [2, 12]?
A: > 20000 nM

Q: Which “inhibit CDC25” value [3] does the source give for nocardione here?
A: micromolar levels

Q: Which results are given for Cc1cc(=O)n(C)c2c(O)c3c(cc12)c(C)cc(=O)n3C [Example 6, 10-hydroxy-1,4,6,9-tetramethylpyrido[3,2-g]-quinoline-2,8(1H,9H)-dione]?
A: IC50 [4]: 3000 nM; IC50 [5]: < 10000 nM; IC50 [7]: < 10000 nM; IC50 [6]: 3000 nM; IC50 [2, 12]: 14500 nM

Q: With C=C(C)CCC[C@]1(C)CCC[C@@H]2C1=CC[C@@H](C)[C@@]2(C)C[C@@H](O)C1=CC(=O)O[C@H]1O [dysidiolide] as the compound, how does the “inhibit CDC25” value [3] read?
A: micromolar levels

Q: For Cc1cc(=O)n(C)c2c3c4c(c(C)cc(=O)n4CO3)c(O)c12 [Example 3, 7-hydroxy-deoxynybomycin], which IC50 [2, 12] is on record?
A: 5000 nM

Q: Which IC50 [8] does the source give for Cc1cc(=O)[nH]c2c(O)c3c(cc12)c(C)cc(=O)n3C [Example 5, 10-hydroxy-1,4,6-trimethylpyndo[3,2-g]quino-line-2,8(1H,9H)-dione] here?
A: 150 nM

Q: What about the IC50 [4] of the same compound?
A: 100 nM

Q: And the IC50 [5]?
A: < 300 nM

Q: And the “selectivity for CDC25 subtypes in comparison to PTP1 B” value [9]?
A: 13 fold

Q: And the IC50 [7]?
A: 100 nM

Q: And the IC50 [10]?
A: 230 nM

Q: What about the “selectivity for CDC25 subtypes in comparison to LAR” value [11] of the same compound?
A: 100 fold

Q: What about the “potential as inhibitors of CDC25 compared with the comparative examples (1, 2, 3, 4, 6 and 9)” value [1] of the same compound?
A: much higher potential

Q: And the IC50 [6]?
A: 100 nM

Q: And the IC50 ([2]; after 20 minutes of pre-incubation, read-out: IC50 against CDC25C)?
A: 180 nM

Q: What does the source list for Cc1cc(=O)[nH]c2c(O)c3c(cc12)c(CO)cc(=O)n3C [Example 7, 10-hydroxy-4-(hydroxymethyl)-1,6-dimethyl-pyrido[3,2-g]quinoline-2,8(1H,9H)-dione]?
A: potential as inhibitors of CDC25 compared with the comparative examples (1, 2, 3, 4, 6 and 9) [1]: much higher potential; IC50 [2, 12]: 930 nM

Q: Which IC50 [2, 12] does the source give for Cc1cc(=O)n(C)c2c3c4c(cc12)c(C)cc(=O)n4CO3 [Example 2, deoxynybomycin] here?
A: > 10000 nM

Q: For CCCc1c2c([nH]c(=O)c1C)C(=O)c1[nH]c(=O)c(C)c(CCC)c1C2=O [Example 9, 3,7-dimethyl-4,6-dipropylpyrido[3,2-g]-qujnoline-2,5,8,10(1H,9H)-tetraone; Diazaquinomycin A], which IC50 [2, 12] is on record?
A: 225000 nM

Q: For Cn1c(=O)cc(CO)c2cc3c(CO)cc(=O)n4c3c(c21)OC4 [Example 4, 6'-hydroxynybomycin], which IC50 [2, 12] is on record?
A: 14000 nM
